One may read the melting point as the temperature of the solid-liquid transition.

`CCCCC(c1c[nH]cn1)c1cccc(CO)c1O` (stereo not given): the melting point was found to be 93 °C. As to `CCc1cccc2c3c([nH]c12)C(CC)(CC(=O)OC)OCC3=NO` (stereo not given), the melting point lay within 188 to 190 °C. Compound `CC(=O)N1C(SCc2ccccc2N(C)C)=NC(=O)C1(C)C` registered a melting point of 99 to 100 °C. `Cc1cc(N)ccc1-c1ccc(-c2ccc(N)cc2C)s1` displayed a melting point of 86 to 88 °C. In the case of `O=C(Nc1ccc(I)cc1)OCc1ccccc1` it was 132 to 134 °C.

`Cc1ccc(C(=O)Nc2nc3ccccc3c(=O)n2C)cc1` yielded a melting point of 189 to 191 °C. The compound `O=C(O)Cc1ccccc1SCc1ccc(Cl)cc1` registered a melting point of 149 to 151 °C.

The compound `C#Cc1ccc(C#N)cc1OC` had a melting point of 105 to 106 °C.

Regarding `Cc1nc2c3c(ccn2c1C)C(=O)CC(c1ccccc1)N3` (stereo not given), the melting point is 138 to 140 °C. Take `COc1ccc(-c2ccc(C=O)c3ccccc23)cc1F`: the melting point lay within 137 to 138 °C. In the case of `COC(=O)c1ccc(OCC(N)=O)c([N+](=O)[O-])c1` it was 185 to 187 °C; in that of `COc1ccc(-c2cc(=Nc3c(C)cc(C)cc3C)n(C)c(N3CCNCC3)n2)cc1OC`, 185 to 189 °C. On to `Cc1noc(NS(=O)(=O)c2ccsc2C(=O)c2ccc3c(c2)OCO3)c1Br`, for which the melting point was in the range of 47 to 49 °C. The figure for `CCOC(=O)/C(=C\Nc1ccc(OC)cc1)c1ccc(OC)cc1` is 90 to 91 °C; for `Cn1cnnc1C(O)(c1ccc(Cl)cc1)c1cc2c3c(c1)c(-c1cccc(Cl)c1)cc(=O)n3CCC2` (stereo not given) it is 183 °C; for `CCOC(=O)C(C)(C)Sc1ncnc2c(O)n(C)nc12` it is 155 to 156 °C.

Regarding `Cc1c(NC(=O)c2ccc(OCc3ccccc3)cc2)ccc2cc(CN3CCCCC3)cnc12`, the melting point was 186 to 187 °C.

As to `CCOC(=S)c1ccc2sc(CCl)c(C)c2c1`, the melting point fell in the range of 95 to 96 °C. With `CCc1cccc(NS(=O)(=O)c2ccc(N3CCNC3=O)cc2)c1`, the melting point lay in the range of 188 to 190 °C. Compound `Cc1ccccc1COC(=O)NC(CO)Cc1ccc(O)cc1` (stereo not given) gave a melting point of 78 to 81 °C. In turn, `O=C(NC(=O)c1ccc2ncccc2c1)NC1CCN(Cc2ccc3cc(F)ccc3c2)CC1` came in with a melting point of 200 to 201 °C. The figure for `O=C(NC1CN2CCC1CC2)c1cc(Cl)cc2oc(-c3ccccc3)nc12` (stereo not given) is 180 to 183 °C. For the compound `CCCCC(CC)C(=O)Nc1ccc2ccn(Cc3ccc(C(=O)OC)cc3)c2c1` (stereo not given), the melting point is 139 to 141 °C. On to `COc1ccc(NC(=O)NCc2cccc3c2C(=O)N(C2CCC(=O)NC2=O)C3=O)cc1` (stereo not given), for which the melting point fell in the range of 205 to 207 °C. Turning to `CC(C)(CCCOc1ccccc1)C(=O)O`, the melting point lay within 151 to 152 °C. In the case of `Cc1cnc2c(c1)C(=O)CC(C)(C)C2` it was 232 to 235 °C. As to `O=C(Nc1ccc(Cl)cc1)NS(=O)(=O)c1ccc2c(c1)CCC2`, the melting point is 169 to 172 °C.

`O=C(OCc1ccccc1Cl)c1ncn2c1[C@@H]1CCCN1C(=O)c1c(Cl)cccc1-2` gave a melting point of 192 to 193 °C. On to `NC(=O)N1CC(Oc2ccc(Cl)cc2)C1`, for which the melting point fell in the range of 187 to 188 °C. `CN(C)c1ccc2c(c1)C(=O)CC(c1cccc(OCc3ccccc3)c1)=N2` registered a melting point of 307 to 308 °C. The figure for `COc1ccc(C(=O)Nc2ccccc2)cc1Nc1ccc(C2=NC(C)(C)CO2)cc1` is 221 to 222 °C; for `Cc1ccc2ccc(C(=O)O)nc2c1` it is 160 to 162 °C; for `CC1(C)CCC(=Cc2ccc(Cl)cc2)C(=O)C1` it is 85 to 86 °C. Turning to `Clc1ccc(-c2nc3n(c2-c2ccc(Cl)cc2)CCC3)cc1`, the melting point lay within 189 to 192 °C. The compound `COc1cc(-c2nc3ccc(OCCN(C)C)cc3n2Cc2ccccc2Br)cc(OC)c1OC` had a melting point of 152 °C.

For `CN(C)CCOc1ccc(Nc2ncc3c(n2)N(C)C(=O)N(c2c(Cl)cccc2Cl)C3)cc1`, the melting point lay in the range of 173 to 174 °C. `Cc1ccc(CNCC2(F)CCN(C(=O)c3ccc(F)c(F)c3)CC2)nc1` had a melting point of 158 °C. In the case of `CCOC(=O)C(=O)NC1N=C2C(=Cc3ccccc32)S1` (stereo not given) it was 226 to 228 °C; in that of `Cc1ccc2c(c1)[C@H](Nc1ncnc(NC(=O)C(F)(F)F)n1)[C@@H](C)C2`, 55 to 58 °C.

`O=C(OCc1ccccc1)ON1C(=O)CC2(CCN(C(=O)OCc3ccccc3)CC2)C1=O`: the melting point was found to be 114 °C. `NC(=O)c1ccc(F)c2c1CC(N(CCC(=O)c1c[nH]c3ccc(F)cc13)C1CCC1)CO2` (stereo not given) yielded a melting point of 139 °C. The compound `Cc1c(NC(=O)CC(CSC(=O)Cc2ccccc2)c2ccccc2)cccc1C(=O)O` (stereo not given) had a melting point of 135 to 137 °C.

With `CNC(=O)C(C)NC(=O)OC(C)(C)C` (stereo not given), the melting point lay in the range of 117 to 118 °C. `COC(=O)C(C)Oc1ccc(Oc2ncc(Cl)cc2F)cc1` (stereo not given) came in with a melting point of 58 to 59 °C. In the case of `C[C@]1(CN2CCN(C(=O)OCc3ccc(C(F)(F)F)cc3)CC2)Cn2cc([N+](=O)[O-])nc2O1`, the melting point was 140 to 142 °C. For the compound `O=C(O)CCc1ccc(-c2cccc(-c3ccnc4c(C(=O)c5cccs5)cnn34)c2)cc1`, the melting point fell in the range of 117 to 119 °C. Regarding `COc1ccc(CN2C(=O)NC(=O)C2O)cc1OC` (stereo not given), the melting point lay within 143 to 144 °C. In the case of `O=C(O)c1c[nH]c2nc(NCc3ccccc3)nn2c1=O` it was 240 to 245 °C; in that of `COC(=O)c1ccc(Br)cc1COc1ccccc1`, 69.5 to 70.5 °C; in that of `Cc1nc(N2CCN(Cc3ccc(OC(F)(F)F)cc3)C2=O)sc1C(=O)NCC1CC1`, 184 to 186 °C.

`CC(C)(O)c1ccc(CNC(=O)c2cccnc2Oc2ccc(F)cc2)cc1` returned a melting point of 106 to 108 °C. The compound `CC(C)C(C(=O)O)N(Cl)Cl` (stereo not given) registered a melting point of 44 to 46 °C. As for `CN1C(=O)CN=C(c2ccccc2)c2cc(CN)ccc21`, the melting point was determined as 201 °C. In the case of `[N-]=[N+]=Nc1cccc2c1C(=O)N(CCCCCC(=O)Cl)C2=O` it was 68 to 69 °C; in that of `Cc1cc(C)c(NC(=O)NC2CC2c2ccc(-c3ncn(-c4ccc(OC(F)(F)F)cc4)n3)cc2)c(C)c1` (stereo not given), 254 to 256 °C.

For the compound `CC(=O)NC[C@H]1CN(c2ccc3c(c2)CCC(C)N3C(=O)OCc2ccccc2)C(=O)O1` (stereo not given in full), the melting point is 126 to 129 °C. Compound `CN1C(=O)[C@H](NC(=O)CCc2cccc(Cl)c2)N=C(c2ccccc2)c2ccccc21` registered a melting point of 157 to 159 °C. In turn, `CCNC(=O)c1ccccc1[Si](C)(C)C` displayed a melting point of 64 to 66 °C.

In turn, `O=S(=O)(CC1CS1)c1ccc(Oc2ccccc2)cc1` (stereo not given) came in with a melting point of 99 to 101 °C. In turn, `COc1ccc(COc2nc(Cl)c(C(C)C)c(OCc3ccc(OC)cc3)n2)cc1` yielded a melting point of 69 to 70 °C. `Nc1cc(OC(=O)Oc2cc(N)c(F)cc2Cl)c(Cl)cc1F` registered a melting point of 136 to 137 °C. For `COc1c(Cl)ccc(-c2nc(C(=O)OC(C)C)cc(Cl)c2Cl)c1F`, the melting point lay within 124 to 128 °C. Compound `Cc1noc(NS(=O)(=O)c2ccccc2-c2ccc(CC(C)C)cc2CO)c1C` displayed a melting point of 60 to 67 °C. Regarding `CN(Cc1cc(C(F)(F)F)cc(C(F)(F)F)c1)C(=O)c1c(-c2ccc(F)cc2)c2ccncc2c(=O)n1C`, the melting point is 179 to 181 °C. With `COc1ccccc1OCC1SCCN1C(=O)CBr` (stereo not given), the melting point was in the range of 82 to 84 °C. Regarding `Cc1cc2c(c(O)c1C=O)C(C)(C)CCC2(C)C`, the melting point was 91 to 92 °C. `CC(C)n1cc(-c2nc(C(N)=O)c(N)nc2-c2ccc(Cl)cc2)ccc1=O` showed a melting point of 246 °C.

Consider `Nc1nc2ccccc2c2c1ncn2CCOCC#Cc1cccs1`, for which the melting point fell in the range of 148 to 150 °C. The figure for `O=S(CCl)c1ccc(-n2cnnn2)cc1` (stereo not given) is 147 to 149 °C; for `CC(Nc1ncnc2[nH]cnc12)c1oc2cccc(F)c2c(=O)c1-c1cccc(F)c1` (stereo not given) it is 195 to 198 °C. In the case of `CCn1c(=O)c2[nH]c(/C=C/c3ccc(OC)c(OC)c3Cl)nc2n(CC)c1=O` it was 278 to 281 °C; in that of `CCOC(=O)c1cc(C(C)C)n(-c2ccc(Cl)cc2Cl)n1`, 93 to 95 °C; in that of `C=Cc1cc(Br)c(O)c(Br)c1`, 75 °C. In the case of `Cc1cccc(Nc2ccccc2C(=O)OCc2ccccn2)c1C` it was 63 to 64 °C; in that of `CCCCOC(=O)NNc1n[nH]c2cc(Cl)ccc12`, 150 to 152 °C; in that of `CC1=C(C#N)S(=O)(=O)c2ccc(F)cc2N1`, 261 to 263 °C. `CC(C#Cc1cccc(C2=NCC(c3ccccc3)O2)c1)N(O)C(N)=O` (stereo not given) returned a melting point of 145 to 146 °C. The figure for `CC(C)OC(=O)N1c2ccccc2Sc2cc(O)c3ccccc3c21` is 205 to 206 °C; for `COc1ccc([C@@H]2C=C[C@H](C(=O)O)n3c(=O)n(CCCl)c(=O)n32)cc1` (relative stereo) it is 158 to 161 °C; for `CCCCC1(C(=O)Nc2ccc(Oc3ccc(Cl)cc3)c(C(F)(F)F)c2)CC1` it is 104 to 106 °C. `CCCCCC(=O)Nc1ncc(OC)cn1`: the melting point came to 102 °C. In the case of `CC(C)C(c1ccc(N)c([N+](=O)[O-])c1)n1cncn1` (stereo not given) it was 206 °C. For `COC(=O)c1ccccc1-c1ccc(Cc2nc(-c3ccccc3)nc3ccccc23)cc1`, the melting point was in the range of 120 to 121 °C. The figure for `COc1cc(OC)c(-c2cc3ccccc3s2)cc1C=CC(=O)c1cc(OC)c(O)c(OC)c1` is 85 to 105 °C; for `CC(C)(C)[N+]([O-])=Cc1ccc(OCc2ccccc2)cc1` it is 11 °C. In the case of `O=CC(=Cc1ccc(OCc2ccccc2)cc1)C(C=O)=Cc1ccc(OCc2ccccc2)cc1`, the melting point lay in the range of 119 to 120 °C. For the compound `CCCCCC(CO)n1cnc(NC(=O)c2ccccc2C(=O)O)c1` (stereo not given), the melting point is 99 to 101 °C. The figure for `CS(=O)(=O)Nc1cc2c(c(C(=O)O)c1)NCCCC2` is 204 to 205 °C. In the case of `COCc1ccc2cccnc2c1Cl`, the melting point is 78 to 79 °C. `CC(C)(C)OC(=O)N1CCN(C(=O)C2C3CCC(O3)C2C(=O)O)CC1` (stereo not given) gave a melting point of 206 to 208 °C.

The record behind these values is a melting point compilation (Tetko et al.; mined from patent text by program, amines drawn as free bases though some values may be those of a salt).
